Test results as given in patent publication US4929741A, “Propiolophenone derivatives” (Hoffman-La Roche Inc., priority 1987, dated 1990).
Like-named read-outs stand apart in the source and are kept apart here.

Columns and labels:
gastric acid secretion = test: Gastric acid secretion-inhibiting activity (pylorus ligation, Shay et al.); format: in vivo; settings: Rattus norvegicus; male pylorus-ligated rats, intraduodenal, 5 h; 50% decrease of the secretion; read-out: Gastric acid secretion-inhibition, ID 50
Description: The test procedure described hereinafter was used to determine the gastric acid secretion-inhibiting activity:
The pylorus of male rats is ligated under slight ether narcosis in accordance with Shay et al., Gastroenterology 5. 43 (1945). The substances to be tested, suspended in 0.5% carboxymethylcellulose, are administered intraduodenally. Control animals are treated only with the vehicle. Five hours after the ligation the animals are killed, the volume and acidity of their gastric juice are determined and the values obtained are compared with those of control animals. The ID50 is that dosage of a test substance which brings about a 50% decrease of the secretion in comparison to the control animals. In the following Table there are given for a series of representative compounds of formula I and for two compounds of formula II the results of the testing with respect to their mucosa-protective activity ("ethanol test") and to their gastric acid secretion-inhibiting activity. Moreover, this Table contains data concerning the acute toxicity (LD50 in the case of single oral administration to mice).

[1] = Acute toxicity, single oral administration; settings: mouse, in vivo, read-out: Toxicity LD 50
[2] = system: lesions of the mucous membrane of the stomach; test: Ethanol test (mucosa-protective activity); format: in vivo; settings: Rattus norvegicus; male rats, oral 30 min before absolute ethanol; dosage reducing number of lesions by 50%; read-out: Ethanol Test ID 50
Description: The experimental procedure described hereinafter was used to determine the mucosa-protective property:
The oral administration of absolute ethanol to male rats in a dosage of 1 ml per rat leads within 1 hour to bloody lesions of the mucous membrane of the stomach. Various dosages of the substances to be tested (suspended in 0.125% carboxymethycellulose) or of the vehicle alone (control) are administered to the rats orally (1 ml per rat) 30 minutes prior to the treatment with ethanol. One hour after the administration of the ethanol the animals are killed, their stomachs are investigated for the presence of lesions and the number and the total dimension of such lesions are determined. The ID50 is that dosage of a test substance which reduces by 50% the number of lesions in comparison to the control group. […]

[3] = single oral administration to mice

SMILES | ED50 (gastric acid secretion) [mg/kg] | LD50 [1, 3] [mg/kg] | ED50 [2] [mg/kg] | LD50 ([1]; po) [mg/kg]
O=C(O)C#CC(=O)c1ccc2c(c1)OCO2 [A, 3-[3,4-(Methylenedioxy)benzoyl]propiolic acid] | 42 | 625 to 1250 | 1.2 | 
COC(=O)C#CC(O)c1ccc2c(c1)OCO2 (stereo not shown) [Aa, methyl 4-hydroxy-4-[3,4-(methylenedioxy)phenyl]-2-butynoate] |  | 312 to 625 | 1.4 | 
COc1cc(C(=O)C#CCO)cc(OC)c1OC [B, 4-hydroxy-1-(3,4,5-trimethoxyphenyl)-2-butyn-1-one] | 18 | 156 to 312 | 1.9 | 
COCCOCCOC(=O)C#CC(O)c1cc(OC)c(OC)c(OC)c1 (stereo not shown) [Bb, 2-(2-methoxyethoxy)ethyl 4-hydroxy-4-(3,4,5-trimethoxyphenyl)-2-butynoate] |  | 625 to 1250 | 4 | 
COc1ccc(C(=O)C#CC(=O)O)cc1 [C, 3-(4-methoxybenzoyl)propiolic acid] |  | 625 to 1250 | 1.4 | 
COC(=O)C#CC(=O)c1ccc(OC)c(OC)c1OC [D, methyl 3-(2,3,4-trimethoxybenzoyl)propiolate] |  | 625 to 1250 | 2.1 | 
COC(=O)C#CC(=O)c1ccc(O)cc1 [E, methyl 3-(4-hydroxybenzoyl)propiolate] |  | 312 to 625 | 1.2 | 
COCCOCCOC(=O)C#CC(=O)c1cc(OC)c(OC)c(OC)c1 [F, 2-(2-methoxyethoxy)ethyl 3-(3,4,5-trimethoxybenzoyl)propiolate] |  | > 5000 | 2.9 | 
COCCOCCOC(=O)C#CC(=O)c1ccc(OC)cc1 [G, 2-(2-methoxyethoxy)ethyl 3-(4-methoxybenzoyl)propiolate] |  | 1000 to 2000 | 2.1 | 
COC(=O)C#CC(=O)c1cc(OC)ccc1OC [H, methyl 3-(2,5-dimethoxybenzoyl)propiolate] |  | > 5000 | 2.2 | 
COc1ccc(OC)c(C(=O)C#CC(=O)O)c1 [I, 3-(2,5-dimethoxybenzoyl)propiolic acid] |  | 625 to 1250 | 1.9 | 
COCCOCCOC(=O)C#CC(=O)c1ccc2c(c1)OCO2 [J, 2-(2-methoxyethoxy)ethyl 3-[3,4-(methylenedioxy)-benzoyl]propiolate] | > 100 | 1250 to 2500 | 2.3 | 
COc1ccc(C(=O)C#CC(=O)O)c(OC)c1OC [K, 3-(2,3,4-trimethoxybenzoyl)-propiolic acid] |  | 500 to 1000 | 3.4 | 
COc1cc(C(=O)C#CC(=O)O)cc(OC)c1OC [L, 3-(3,4,5-trimethoxybenzoyl)-propiolic acid] | 56 | 1000 to 2000 | 4.1 | 
COC(=O)C#CC(=O)c1ccc(F)cc1 [M, methyl 3-(4-fluorobenzoyl)propiolate] |  | 1250 to 2500 | 4.2 | 
COC(=O)C#CC(=O)c1cc(OC)c(OC)c(OC)c1 [N, methyl 3-(3,4,5-trimethoxybenzoyl)propiolate] | > 100 | > 5000 | 4.2 | 
COc1cc(C(=O)C#CC(=O)N(C)C)cc(OC)c1OC [O, N,N-dimethyl-3-(3,4,5-trimethoxybenzoyl)propiolamide] | 28 | 312 to 625 | 2.8 | 
O=C(C#CCO)c1ccc(F)cc1 [P, 1-(4-fluorophenyl)-4-hydroxy-2-butyn-1-one] |  | 80 to 156 | 0.9 | 
Cc1ccc(C(=O)C#CCO)cc1 [Q, 4-hydroxy-1-(4-methylphenyl)-2-butyn-1-one] |  | 80 to 156 | 1.5 | 
CCOC(C)OCC#CC(=O)c1ccc(F)cc1 (stereo not shown) [R, 4-(1-ethoxyethoxy)-1-(4-fluorophenyl)-2-butyn-1-one] |  | 80 to 156 | 1.4 | 
O=C(C#CCO)c1ccc(Cl)cc1 [S, 1-(4-chlorophenyl)-4-hydroxy-2-butyn-1-one] |  | 80 to 156 | 1.2 | 
COc1ccc(C(=O)C#CCO)cc1 [T, 4-hydroxy-1-(4-methoxyphenyl)-2-butyn-1-one] |  | 40 to 80 | 1.2 | 
O=C(C#CCO)c1ccc2c(c1)OCO2 [U] |  |  | 1.1 | 80 to 156
COc1cc(C(=O)C#CC(C)O)cc(OC)c1OC (stereo not shown) [V, 4-hydroxy-1-(3,4,5-trimethoxyphenyl)-2-pentyn-1-one] | 3.1 | 156 to 312 | 1.2 | 
CCOC(C)OCC#CC(=O)c1ccc(OC)c(OC)c1OC (stereo not shown) [W, 4-(1-ethoxyethoxy)-1-(2,3,4-trimethoxyphenyl)-2-butyn-1-one] | 9 | 312 to 625 | 0.8 | 
COc1ccc(C(=O)C#CCO)c(OC)c1OC [X, 4-hydroxy-1-(2,3,4-trimethoxyphenyl)-2-butyn-1-one] | 4 | 156 to 312 | 0.8 | 
CSc1ccc(C(=O)C#CCO)cc1 [Y, 4 hydroxy-1-[4-(methylthio)phenyl]-2-butyn-1-one] | 2.7 | 156 to 312 | 1 | 
